The values below come from patent publication US20050080076A1 (Xanodyne Pharmacal, Inc., priority 2003, published 2005).

Where only a bound is given, the exact number is not on record here.

One data set deals with Adrenergic α1A (Homo sapiens, UniProt P25100). The experiment in a line: Receptor binding, Adrenergic α1A. As for the experimental part:
Receptor-ligand binding studies were performed as known to one skilled in the art. Compounds evaluated were LMP, the parent compound, the NDM LMP metabolite of LMP, and the sulfoxide metabolite of LMP. These studies verified receptor binding and affinity by the parent compound, as well as identified other potential receptors for the parent compound and its metabolites, and identified and verified receptors and receptor affinity for the metabolites. […] Binding to the histamine H1 receptor, the calcium ion channel receptor, and the sodium ion channel receptor were also evaluated. In each of the tables, the following abbreviations are used: LMP indicates the parent compound levomepromazine. NDM LMP indicates the N-desmethyl (N-desmethyl) metabolite. Sulfoxide indicates the sulfoxide metabolite. […] Ki (the inhibition constants of binding) indicate binding affinity.

The next data set in a line: Serum protein binding. The data set is classed as in vitro ADME.
The target of another data set is Adrenergic α1C (Homo sapiens, UniProt P35348). The experiment in a line: Receptor binding, Adrenergic α1C. As for the experimental part:
Receptor-ligand binding studies were performed as known to one skilled in the art. […] Binding to the histamine H1 receptor, the calcium ion channel receptor, and the sodium ion channel receptor were also evaluated. […] Sulfoxide indicates the sulfoxide metabolite. […] Ki (the inhibition constants of binding) indicate binding affinity.

The subject of a further data set is serotonin receptors. Briefly: Receptor affinity summary, serotonin receptors. The data set is classed as binding. On the set-up: key to Relative Affinity: ≧ indicates greater or equal affinity; = indicates about the same affinity; − indicates no affinity. As to conditions: for Relative Affinity: Serotonin. As for the experimental part: (§1) Receptor-ligand binding studies were performed as known to one skilled in the art. Compounds evaluated were LMP, the parent compound, the NDM LMP metabolite of LMP, and the sulfoxide metabolite of LMP. These studies verified receptor binding and affinity by the parent compound, as well as identified other potential receptors for the parent compound and its metabolites, and identified and verified receptors and receptor affinity for the metabolites.
(§2) Dopamine receptor affinity included binding to D1, D2, D3, D4, and D5 receptors. Serotonin receptor affinity included binding to 5-HT1A, 5-HT2A, 5-HT2B, 5-HT2, 5-HT5A, 5-HT6, and 5-HT7 receptors. Alpha adrenergic receptor affinity included binding to α1A, α1B, α1C, α2A, α2B, and α2C receptors. Muscarinic receptor affinity included binding to M1, M2, M3, M4, and M5 receptors. Binding to the histamine H1 receptor, the calcium ion channel receptor, and the sodium ion channel receptor were also evaluated. In each of the tables, the following abbreviations are used: LMP indicates the parent compound levomepromazine. NDM LMP indicates the N-desmethyl (N-desmethyl) metabolite. Sulfoxide indicates the sulfoxide metabolite. […] Ki (the inhibition constants of binding) indicate binding affinity.

Another data set deals with T1, Serotonin 5-HT2C (Homo sapiens, UniProt P28335).
T1 sequence (P28335 33-458): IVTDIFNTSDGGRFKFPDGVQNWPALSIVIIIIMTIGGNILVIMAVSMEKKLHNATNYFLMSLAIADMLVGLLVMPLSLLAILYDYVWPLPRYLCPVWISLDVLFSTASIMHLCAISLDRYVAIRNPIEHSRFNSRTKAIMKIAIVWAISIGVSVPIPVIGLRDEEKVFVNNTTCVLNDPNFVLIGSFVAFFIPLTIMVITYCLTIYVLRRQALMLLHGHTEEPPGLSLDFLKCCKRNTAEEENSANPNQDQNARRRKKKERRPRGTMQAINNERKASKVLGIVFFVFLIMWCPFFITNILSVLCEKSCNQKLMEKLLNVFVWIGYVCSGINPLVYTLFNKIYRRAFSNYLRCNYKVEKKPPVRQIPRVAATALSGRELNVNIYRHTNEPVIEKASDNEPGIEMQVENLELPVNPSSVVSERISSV
The experiment in a line: Receptor binding, Serotonin 5-HT2C. As for the experimental part:
as §1, §2

Data set [1] can be described thus: Serum concentrations and bioavailability after LMP administration. The data set is classed as in vivo.
The target in another data set is Calcium Channel. Briefly: Receptor binding, Calcium Channel. The procedure: as §1, §2
In a further data set the test system is dopamine receptors. The experiment in a line: Receptor affinity summary, dopamine receptors. It counts as binding. On the set-up: key to Relative Affinity: ≧ indicates greater or equal affinity; = indicates about the same affinity; − indicates no affinity. As to conditions: for Relative Affinity: Dopamine. The procedure:
as §1, §2

In a further data set the target is Adrenergic α2A (Homo sapiens, UniProt P08913). The experiment in a line: Receptor binding, Adrenergic α2A. The procedure: as §1, §2
Adrenergic α2A, sequence (P08913 whole entry): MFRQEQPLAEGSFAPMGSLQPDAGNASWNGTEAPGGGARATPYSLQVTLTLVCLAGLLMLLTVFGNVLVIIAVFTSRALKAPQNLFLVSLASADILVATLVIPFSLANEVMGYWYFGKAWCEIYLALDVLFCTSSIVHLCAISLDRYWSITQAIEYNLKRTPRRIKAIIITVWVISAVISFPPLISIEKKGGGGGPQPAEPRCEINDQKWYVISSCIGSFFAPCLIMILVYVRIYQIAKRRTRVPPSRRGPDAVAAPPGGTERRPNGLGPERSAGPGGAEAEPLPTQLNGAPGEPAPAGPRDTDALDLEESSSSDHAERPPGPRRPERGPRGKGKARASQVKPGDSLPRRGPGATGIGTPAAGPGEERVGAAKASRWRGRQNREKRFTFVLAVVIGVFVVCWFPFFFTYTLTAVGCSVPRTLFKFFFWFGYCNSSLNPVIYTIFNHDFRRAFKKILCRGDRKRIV
The target of the next data set is Dopamine D1 (Homo sapiens, UniProt P21728). Briefly: Receptor binding, Dopamine D1. As for the experimental part:
Receptor-ligand binding studies were performed as known to one skilled in the art.
as §2, with “In each of the tables, the following abbreviations are used: LMP indicates the parent compound levomepromazine. NDM LMP indicates the N-desmethyl (N-desmethyl) metabolite.” left out

A further data set deals with T2, Adrenergic α1B (Homo sapiens, UniProt P35368).
T2 sequence (P35368 1-520): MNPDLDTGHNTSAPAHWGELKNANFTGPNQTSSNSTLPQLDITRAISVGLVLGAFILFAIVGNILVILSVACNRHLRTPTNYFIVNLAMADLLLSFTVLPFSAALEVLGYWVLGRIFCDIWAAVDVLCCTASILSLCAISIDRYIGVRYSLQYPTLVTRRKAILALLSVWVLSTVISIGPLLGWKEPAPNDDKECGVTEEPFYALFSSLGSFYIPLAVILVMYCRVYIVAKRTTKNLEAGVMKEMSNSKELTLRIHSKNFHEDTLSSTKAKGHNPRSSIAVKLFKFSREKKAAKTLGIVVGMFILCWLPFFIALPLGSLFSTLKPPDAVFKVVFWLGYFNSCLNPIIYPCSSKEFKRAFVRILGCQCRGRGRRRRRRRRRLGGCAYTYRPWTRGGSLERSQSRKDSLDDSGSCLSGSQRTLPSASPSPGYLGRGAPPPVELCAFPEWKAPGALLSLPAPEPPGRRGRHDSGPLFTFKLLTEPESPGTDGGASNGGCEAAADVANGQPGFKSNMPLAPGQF
The experiment in a line: Receptor binding, Adrenergic α1B. The procedure: as §1, §2

The next data set concerns the target Dopamine D3 (Homo sapiens, UniProt P35462). The experiment in a line: Receptor binding, Dopamine D3. The procedure:
as §1, §2

The next data set concerns the target Serotonin 5-HT2A (Homo sapiens, UniProt P28223). The experiment in a line: Receptor binding, Serotonin 5-HT2A. The procedure:
as §1, §2

Dopamine D3, sequence (P35462 whole entry): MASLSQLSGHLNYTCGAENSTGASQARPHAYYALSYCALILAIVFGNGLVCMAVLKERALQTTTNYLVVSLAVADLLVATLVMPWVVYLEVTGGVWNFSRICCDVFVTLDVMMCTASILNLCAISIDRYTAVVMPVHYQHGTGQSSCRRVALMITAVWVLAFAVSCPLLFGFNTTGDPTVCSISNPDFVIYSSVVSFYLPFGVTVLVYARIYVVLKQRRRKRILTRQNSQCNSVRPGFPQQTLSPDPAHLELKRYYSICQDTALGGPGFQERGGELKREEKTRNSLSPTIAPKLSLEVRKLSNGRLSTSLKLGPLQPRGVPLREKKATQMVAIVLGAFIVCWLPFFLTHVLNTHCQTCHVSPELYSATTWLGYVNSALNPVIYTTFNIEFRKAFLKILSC
Serotonin 5-HT2A, sequence (P28223 whole entry): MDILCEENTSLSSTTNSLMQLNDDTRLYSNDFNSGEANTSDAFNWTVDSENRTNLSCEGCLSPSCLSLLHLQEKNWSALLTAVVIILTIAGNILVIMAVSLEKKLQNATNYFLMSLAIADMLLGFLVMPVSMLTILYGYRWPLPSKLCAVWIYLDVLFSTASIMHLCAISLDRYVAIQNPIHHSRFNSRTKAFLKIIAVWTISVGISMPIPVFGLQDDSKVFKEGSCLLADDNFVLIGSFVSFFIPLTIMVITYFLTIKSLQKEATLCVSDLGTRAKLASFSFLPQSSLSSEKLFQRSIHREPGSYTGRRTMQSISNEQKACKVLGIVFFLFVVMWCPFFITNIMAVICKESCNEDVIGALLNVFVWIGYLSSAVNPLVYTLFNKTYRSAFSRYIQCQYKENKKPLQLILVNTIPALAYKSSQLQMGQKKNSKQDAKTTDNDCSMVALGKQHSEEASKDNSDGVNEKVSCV
Dopamine D1, sequence (P21728 whole entry): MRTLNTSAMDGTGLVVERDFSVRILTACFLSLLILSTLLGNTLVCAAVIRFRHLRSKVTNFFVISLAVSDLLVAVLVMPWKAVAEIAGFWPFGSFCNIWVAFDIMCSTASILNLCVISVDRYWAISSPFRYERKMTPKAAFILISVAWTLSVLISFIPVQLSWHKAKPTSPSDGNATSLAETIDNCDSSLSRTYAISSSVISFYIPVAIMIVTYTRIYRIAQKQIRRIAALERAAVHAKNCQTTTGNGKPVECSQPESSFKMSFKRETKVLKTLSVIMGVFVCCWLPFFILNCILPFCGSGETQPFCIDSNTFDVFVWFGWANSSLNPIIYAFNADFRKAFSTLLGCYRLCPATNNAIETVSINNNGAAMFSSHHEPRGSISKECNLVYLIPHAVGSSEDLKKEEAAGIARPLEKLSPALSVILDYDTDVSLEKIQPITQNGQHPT
Adrenergic α1C, sequence (P35348 whole entry): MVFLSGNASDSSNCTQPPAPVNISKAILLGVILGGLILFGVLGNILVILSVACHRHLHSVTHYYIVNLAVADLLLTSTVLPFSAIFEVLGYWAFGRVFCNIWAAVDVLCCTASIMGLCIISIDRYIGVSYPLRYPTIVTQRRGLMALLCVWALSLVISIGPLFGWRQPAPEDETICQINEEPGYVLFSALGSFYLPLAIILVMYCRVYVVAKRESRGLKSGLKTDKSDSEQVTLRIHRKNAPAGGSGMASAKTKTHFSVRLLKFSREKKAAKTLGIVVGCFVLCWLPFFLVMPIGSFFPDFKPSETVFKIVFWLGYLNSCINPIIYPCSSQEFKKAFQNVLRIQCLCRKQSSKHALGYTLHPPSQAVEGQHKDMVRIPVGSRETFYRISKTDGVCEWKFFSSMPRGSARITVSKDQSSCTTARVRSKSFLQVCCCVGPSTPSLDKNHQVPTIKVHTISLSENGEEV
Adrenergic α1A, sequence (P25100 whole entry): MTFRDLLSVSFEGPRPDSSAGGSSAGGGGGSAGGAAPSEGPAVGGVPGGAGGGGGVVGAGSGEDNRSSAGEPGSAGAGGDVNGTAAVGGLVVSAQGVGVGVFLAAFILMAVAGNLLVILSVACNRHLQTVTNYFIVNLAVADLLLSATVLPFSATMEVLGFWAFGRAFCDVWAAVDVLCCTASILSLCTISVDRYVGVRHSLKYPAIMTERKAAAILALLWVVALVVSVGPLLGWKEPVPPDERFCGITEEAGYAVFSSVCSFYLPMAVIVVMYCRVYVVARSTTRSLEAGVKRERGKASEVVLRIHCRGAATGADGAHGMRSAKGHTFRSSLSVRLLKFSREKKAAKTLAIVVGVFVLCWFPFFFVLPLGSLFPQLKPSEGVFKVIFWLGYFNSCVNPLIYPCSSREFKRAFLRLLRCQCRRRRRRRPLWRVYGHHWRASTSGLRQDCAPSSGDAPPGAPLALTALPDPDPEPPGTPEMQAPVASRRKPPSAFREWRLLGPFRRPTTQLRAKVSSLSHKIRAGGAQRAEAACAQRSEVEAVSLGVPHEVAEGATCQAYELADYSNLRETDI

On to `COc1ccc2c(c1)N(C[C@H](C)CN(C)C)c1ccccc1[S+]2[O-]` (stereo partly drawn) [Sulfoxide, levomepromazine sulfoxide], for which the Ki on Adrenergic α1A was 141 nM; on Adrenergic α1C, 193 nM; on Serotonin 5-HT2C, 1980 nM; at Calcium Channel, 9090 nM; on Adrenergic α2A it was more than 10000 nM; on Dopamine D1 it was more than 10000 nM. For the same molecule, the Ki at Adrenergic α1B was 80 nM; at Dopamine D3 it was more than 10000 nM; at Serotonin 5-HT2A, 410 nM. Besides, the “free fraction (less protein binding), relative” value in “Serum protein binding” (relative to LMP or NDM LMP) was found to be 20 fold. Moreover, the “binding affinity to serotonin receptors (in words)” value in the data set on serotonin receptors is “essentially no binding affinity”. For the same molecule, the “Relative Affinity” value is listed as “−” in the data set with serotonin receptors, “NDM LMP > LMP > sulfoxide” in the data set on Calcium Channel and “−” with dopamine receptors. Further, in [1] (25 mg LMP intramuscularly), the “sulfoxide detection after LMP” value is on record as “no sulfoxide was detected”. For the same molecule, the “sulfoxide concentrations relative to parent compound” value in data set [1] (LMP 50 mg to 350 mg orally daily for one week) came to 2.5 times. The “sulfoxide formation after LMP” value in [1] (LMP intravenously, bioavailability study) was “sulfoxide formation was detected although to a much lower extent compared to the oral formulation”. Moreover, the “total serum concentrations relative to parent LMP or NDM LMP” value in data set [1] (in vivo) is listed as 1.5-3.0 fold. For the same molecule, the “binding affinity to dopamine receptors (in words)” value with dopamine receptors is reported as “essentially no binding affinity”.

Take `COc1ccc2c(c1)N(C[C@H](C)CN(C)C)c1ccccc1S2` [LMP, Levomepromazine]: the Ki is 8 nM at Serotonin 5-HT2C; 407 nM on Calcium Channel; 2 nM on Adrenergic α1B; 4 nM at Dopamine D3; less than 4 nM at Serotonin 5-HT2A. In addition, the bioavailability in data set [1] (in vivo, 25 mg oral formulation compared to 25 mg intravenous dose, read-out: absolute bioavailability) was approximately 20%.

In the data set “Serum protein binding” (serum), `CNCC(C)CN1c2ccccc2Sc2ccc(OC)cc21` (stereo not drawn) [NDM LMP, R(+) 2-methoxy-10-2-methyl-3-monomethylaminopropyl phenothiazine] displayed a fraction unbound of 0.01. Moreover, the “Relative Affinity” value in the data set on serotonin receptors is recorded as “LMP = NDM LMP”; with Calcium Channel, “NDM LMP > LMP > sulfoxide”; in the data set with dopamine receptors, “LMP = NDM LMP”. The Ki on Serotonin 5-HT2C was 9 nM; on Calcium Channel, 49 nM; at Adrenergic α2A it was 239 nM; at Dopamine D1, 99 nM; on Adrenergic α1B it was 2 nM; at Dopamine D3, 5 nM. Further, the Ki on Serotonin 5-HT2A is less than 4 nM.
